# Biological target: K. pneumoniae FtsZ (KpFtsZ) (Klebsiella pneumoniae, UniProt A0A0H3GRR0)
# Assay: fluorescence anisotropy titration of intrinsically fluorescent RUP4 ([…]) with purified KpFtsZ, […] °C, […] fit
# Type: binding
# Sequence of K. pneumoniae FtsZ (KpFtsZ) (A0A0H3GRR0 entry or part of it): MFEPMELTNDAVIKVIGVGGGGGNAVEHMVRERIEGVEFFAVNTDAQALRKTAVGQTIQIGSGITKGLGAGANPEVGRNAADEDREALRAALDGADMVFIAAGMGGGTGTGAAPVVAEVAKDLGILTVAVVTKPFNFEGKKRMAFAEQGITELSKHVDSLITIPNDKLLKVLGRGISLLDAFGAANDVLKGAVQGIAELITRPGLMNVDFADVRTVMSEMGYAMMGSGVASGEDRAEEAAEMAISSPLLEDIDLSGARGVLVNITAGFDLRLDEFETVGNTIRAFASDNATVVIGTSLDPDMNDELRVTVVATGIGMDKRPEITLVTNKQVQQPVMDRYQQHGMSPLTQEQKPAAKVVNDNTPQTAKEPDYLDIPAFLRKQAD
smiles,measurement,value
NC(=O)c1c(F)ccc(OC(CCNC(=O)c2ccc(O)c(O)c2Cl)c2nc(-c3ccc(C(F)(F)F)cc3)c(Br)o2)c1F (stereo not shown) [RUP4],Kd,49 ± 5 µM
